Assay results published in patent US8653048B2 (Sanlugen Pharmatech Ltd., priority 2009, dated 2014).

Tests used:
[1] = Metabolism in liver microsomal enzymes (liver S9 fraction); assay type: in vitro ADME, mouse; details: for Degrade %: liver S9 fraction; for HPLC peak area of drug: liver S9 fraction + NADPH, 37° C.
Description: The liver of a mouse was taken out and washed by cold normal saline and dried with filter paper, then cut into small pieces. They were washed 2-3 times with ice cold PBS (pH=7.4) until the elute became colorless or faint yellow. The small pieces of the liver were cut into fragments. Then PBS (pH=7.4) solution in an amount four times of the weight of the liver was added. The liver fragments were homogenated under ice-bath to avoid the down-regulation of enzymatic activity. The homogenated mixture was transferred into a centrifuge tube with stopper and centrifuged for 20 min at 4000 r/min to get the supernatant. Then, the supernatant was centrifuged at 12000 r/min for 20 min to get the supernatant, which was the S9 fraction.
Liver microsomal S9 was mixed with drug solutions. 1800 μL of the mixture in test tube was pre-incubated in a water-bath for 5 min at 37° C. 200 μL of 10 mmol/L NADPH solution was added to start the reaction. The final reaction volume was 2 mL. 200 μL of the incubation solution was taken at 0 min, 10 min, 20 min, 40 min, 1 h, 2 h, 4 h, 6 h, 12 h, respectively. 1 mL of ice cold isopropanol was added into the solution immediately and vortexed for 30 s and kept still for 5 min. 2.5 mL of EtOAc was added and vortexed and centrifuged at 4000 rpm for 15 min. The supernatant was taken and dried by blowing in nitrogen. The dried sample was redissolved in 200 μL HPLC mobile phase solution. 20 μL sample was loaded to the HPLC. The chromatography and peak area were recorded.

[2] = tested on: H460 cells, a human lung cancer cell line, inoculated in nude mice; assay: H460 tumor in nude mice, oral administration of SL-01; assay type: in vivo, Balb/c female nude mice; details: for Tumor Weight, Average Value: end of the experiment; for drop of animal weight: figure fits day 22 versus negative control (Table 13)
Description: 1. […] Suspension formulation was prepared using 2.5% starch for intragastric administration. […] In the test, it was dissolved in normal saline and filtered with microfiltration membrane and administrated by tail vein injection. Positive control drug: Ftorafur (FT-207) produced by Qilu Pharmaceutical Co. Ltd., oral formulation.
2. Experimental animals: 50 Balb/c female nude mice at 4-5 weeks old, purchased from Peking University Health Science Center.
1. Culture of tumor cells: H460 cells were cultured in an incubator with 5% CO2 at 37° C. using RPMI-1640 nutrient solution containing 10% fetal calf serum. The cells were passaged through routine method.
2.2 Method of inoculating tumor cells in nude mice: cells were collected when they grew to about […] in culture flasks. Cells were washed twice with PBS before they were digested, then 1.5 mL of digestion solution juices was added into every bottle. They were observed under a microscope and the digestion was terminated after the cells were shed. Cell suspension was collected into 50 mL of centrifugal tube and centrifuged and washed twice with PBS. It was counted and suspended with 10 mL of normal saline to get the tumor cell suspension of inoculated nude mice. The tumor cells (1×10^7/0.2 mL) were inoculated in the left front armpits of mice. The tumor growth was observed after the inoculation.
4. Evaluation protocols for drug treating effect: these mice were weighed before drug administration and every week thereafter. The long tumor pathline (a) and the short tumor pathline (b) were measured at the same time. The formula for calculating the tumor volume is V=(a×b^2)/2. Mice were euthanized after drug administration for 3 weeks. The tumor was taken out and weighed. […] W was the tumor weight of the treatment group.

[3] = SL-01 middle dosage 60 mg/kg gavage
[4] = SL-01 middle dosage group 60 mg/kg gavage
[5] = SL-01 small dosage 30 mg/kg gavage
[6] = SL-01 small dosage group 30 mg/kg gavage

## Nc1ccn([C@@H]2O[C@H](CO)[C@@H](O)C2(F)F)c(=O)n1 [Gemcitabine, gemcitabine, reference compound]
[1]; 0 min
  Degrade %: 0%
[1]; 1 h
  Degrade %: 3.64%
[1]; 2 h
  Degrade %: 56.16%
[1]; 4 h
  Degrade %: 72.02%
[1]; 6 h
  Degrade %: 85.55%
[1]; 12 h
  Degrade %: 95.13%
[2]; Gemcitabine 30 mg/kg i.v. 1 per 3 days, day 7
  Mean Volume of Tumor: 700.7 mm^3
[2]; Gemcitabine 30 mg/kg i.v. 1 per 3 days, day 14
  Mean Volume of Tumor: 759.7 mm^3
[2]; Gemcitabine 30 mg/kg i.v. 1 per 3 days, day 18
  Mean Volume of Tumor: 804.5 mm^3
[2]; Gemcitabine 30 mg/kg i.v. 1 per 3 days, day 22
  Mean Volume of Tumor: 868.0 mm^3
[2]; Gemcitabine 30 mg/kg i.v., day 0
  Mean Weight of Nude Mice: 19.1 g
[2]; Gemcitabine 30 mg/kg i.v., day 7
  Mean Weight of Nude Mice: 19.0 g
[2]; Gemcitabine 30 mg/kg i.v., day 14
  Mean Weight of Nude Mice: 18.6 g
[2]; Gemcitabine 30 mg/kg i.v., day 22
  Mean Weight of Nude Mice: 18.2 g
[2]; Gemcitabine 30 mg/kg i.v.
  Tumor Weight, Average Value: 0.89 g
[2]; gemcitabine group 30 mg/kg i.v.
  efficacy by t-test, in words: significant efficacy

## CCCCCCCCCCCCOC(=O)c1nccnc1C(=O)Nc1ccn([C@@H]2O[C@H](CO)[C@@H](O)C2(F)F)c(=O)n1 [Compound 4, Dodecyl-3-((1-((2R,4R,5R)-3,3-difluoro-4-hydroxy-5-(hydroxymethyl)-tetrahydrofuran-2-yl)-2-oxo-1,2-dihydropyrimidin-4-yl)carbamoyl)pyrazine-2-carboxylate]
[1]; 0 min
  HPLC peak area of drug: 179613.3
  Degrade %: 0%
[1]; 1 h
  HPLC peak area of drug: 172893.5
  Degrade %: 3.74%
[1]; 2 h
  HPLC peak area of drug: 142419.3
  Degrade %: 20.71%
[1]; 4 h
  HPLC peak area of drug: 64632.59
  Degrade %: 64.02%
[1]; 6 h
  HPLC peak area of drug: 27009.4
  Degrade %: 84.96%
[1]; 12 h
  HPLC peak area of drug: 18730.51
  Degrade %: 89.57%
[2]; SL-01 middle dosage 60 mg/kg gastric gavage 1 per 3 days, day 7
  Mean Volume of Tumor: 739.6 mm^3
[2]; SL-01 middle dosage 60 mg/kg gastric gavage 1 per 3 days, day 14
  Mean Volume of Tumor: 823.4 mm^3
[2]; SL-01 middle dosage 60 mg/kg gastric gavage 1 per 3 days, day 18
  Mean Volume of Tumor: 870.2 mm^3
[2]; SL-01 middle dosage 60 mg/kg gastric gavage 1 per 3 days, day 22
  Mean Volume of Tumor: 905.3 mm^3
[2]; [3]
  Inhibition ratio (tumor weight): 53.7%
  Tumor Weight, Average Value: 0.95 g
[2]; SL-01 middle dosage 60 mg/kg gavage, day 0
  Mean Weight of Nude Mice: 19.5 g
[2]; SL-01 middle dosage 60 mg/kg gavage, day 7
  Mean Weight of Nude Mice: 19.1 g
[2]; SL-01 middle dosage 60 mg/kg gavage, day 14
  Mean Weight of Nude Mice: 19.6 g
[2]; SL-01 middle dosage 60 mg/kg gavage, day 22
  Mean Weight of Nude Mice: 19.6 g
[2]; [4]
  efficacy by t-test, in words: significant efficacy
  drop of animal weight: 14.8%
[2]; SL-01 small (low) dosage 30 mg/kg gastric gavage 1 per 3 days, day 7
  Mean Volume of Tumor: 761.3 mm^3
[2]; SL-01 small (low) dosage 30 mg/kg gastric gavage 1 per 3 days, day 14
  Mean Volume of Tumor: 840.9 mm^3
[2]; SL-01 small (low) dosage 30 mg/kg gastric gavage 1 per 3 days, day 18
  Mean Volume of Tumor: 950.5 mm^3
[2]; SL-01 small (low) dosage 30 mg/kg gastric gavage 1 per 3 days, day 22
  Mean Volume of Tumor: 1092.0 mm^3
[2]; [5]
  Inhibition ratio (tumor weight): 48.3%
  Tumor Weight, Average Value: 1.06 g
[2]; SL-01 small dosage 30 mg/kg gavage, day 0
  Mean Weight of Nude Mice: 19.6 g
[2]; SL-01 small dosage 30 mg/kg gavage, day 7
  Mean Weight of Nude Mice: 19.3 g
[2]; SL-01 small dosage 30 mg/kg gavage, day 14
  Mean Weight of Nude Mice: 19.9 g
[2]; SL-01 small dosage 30 mg/kg gavage, day 22
  Mean Weight of Nude Mice: 19.7 g
[2]; [6]
  efficacy by t-test, in words: significant efficacy
  drop of animal weight: 14.3%
